Data published in patent US11503828B2, “Antibacterial hydrophilic compound and use thereof” (SHENZHEN UNIVERSITY, priority 2017, dated 2022).

Experiments:
Escherichia coli = assay: Antibacterial activity of modified PET cloth by plate counting method; assay type: cell-based; set-up: Antibacterial activity, Washing one time: concentration or dose not given beside the values; settings: E. coli
Experimental: (§1) The antibacterial hydrophilic compounds obtained in Examples 1-29 may be formulated into a finishing liquid having a mass concentration of 0.1-10% using water as a solvent, and the PET cloth may be impregnated and modified by the finishing liquid. After irradiation for 1 minute at ultraviolet light (wavelength: 254 nm), the antibacterial activity against Escherichia coli and Staphylococcus aureus may be tested by plate counting method, and their hydrophilicity (water contact angle of untreated PET may be 92 degrees) may be tested.

Staphylococcus aureus = assay: as above; assay type: cell-based; set-up: Antibacterial activity, Washing one time: concentration or dose not given beside the values; settings: S. aureas
Experimental: as §1

[1] = Hydrophilicity (water contact angle) of modified PET cloth; assay type: physicochemical; settings: for Contact angel: water contact angle of PET cloth modified with finishing liquid, UV 254 nm 1 minute, untreated PET 92 degrees
Experimental: as §1
FIG. 3 illustrates a change in a contact angle of PET cloth treated or untreated by an antibacterial hydrophilic compound according to Example 13 of the present disclosure, where section (A) is a photograph of untreated PET cloth, and section (B) is a photograph of treated PET clot.

[2] = Hydrophilicity (core height) of modified PET cloth, FIG. 5; assay type: physicochemical; settings: modified PET cloth (B) vs unmodified PET (A)
Source text: FIG. 5 is a diagram illustrating hydrophilicity of PET cloth treated with an antibacterial hydrophilic compound according to Example 1 of the present disclosure.

Row | SMILES | Antibacterial activity, Washing 50 times (Escherichia coli) | Antibacterial activity, Washing one time (Escherichia coli) | Antibacterial activity, Washing 50 times (Staphylococcus aureus) | Antibacterial activity, Washing one time (Staphylococcus aureus) | Contact angel [1] | core height vs unmodified PET [2] | water contact angle of the treated PET cloth ([1]; FIG. 3, untreated PET cloth 92 degrees)
1 | C[N+](C)(CCCS(=O)(=O)[O-])c1ccc(C(=O)c2ccc([N+](C)(C)CCCS(=O)(=O)[O-])cc2)cc1 [Example 1] | 88.5% | 99.99% | 92.9% | 99.99% | 0 degrees | significantly greater | 
2 | C[N+](C)(CCCCS(=O)(=O)[O-])CCOc1ccc(C(=O)c2ccccc2)cc1 [Example 2] | 86.2% | 99.99% | 89.9% |  | 0 degrees |  | 
3 | CCOP(=O)([O-])OCC[N+](C)(C)Cc1ccc(C(=O)c2ccccc2)cc1 [Example 3] | 87.8% | 99.99% | 90.2% | 99.99% | 0 degrees |  | 
4 | C[N+](C)(CCC(=O)[O-])c1ccc(C(=O)Oc2ccc(C(=O)c3ccccc3)cc2)cc1 [Example 4] | 86.9% | 99.99% | 80.9% | 99.99% | 0 degrees |  | 
5 | C[N+](C)(CCS(=O)(=O)[O-])Cc1ccc(C(=O)c2ccccc2)cc1 [Example 6] | 86.6% | 99.99% | 89.7% |  | 0 degrees |  | 
6 | CCCCCCCC[N+](C)(C)CCOC(=O)Nc1ccc(C(=O)c2ccccc2)cc1.[Br-] [Example 11] | 92.8% | 99.99% | 99.9% | 99.99% | 0 degrees |  | 
7 | CCCCCCCCCCCC[N+](C)(C)c1ccc(C(=O)Oc2ccc(C(=O)c3ccccc3)cc2)cc1 [Example 13] | 91.7% | 99.99% | 96.9% | 99.99% | 0 degrees |  | 0 °
8 | CCCCCCCCCCCC[N+](C)(C)Cc1ccc(C(=O)c2ccccc2)cc1 [Example 14] | 91.7% | 99.99% | 96.9% | 99.99% | 0 degrees |  | 
9 | CCCCCCCCCC[N+](C)(C)Cc1ccc(C(=O)c2ccc(C[N+](C)(C)CCCCCCCCCC)cc2)cc1 [Example 15] | 96.8% | 99.99% | 99.9% |  | 0 degrees |  | 
10 | CCCCCCCCCC[N+](C)(C)Cc1ccc2c(c1)C(=O)c1ccccc1C2=O [Example 16] | 91.7% | 99.99% | 98.5% |  | 0 degrees |  | 
11 | CCCCCCCCCCCC[N+](C)(C)CCOC(=O)Nc1ccc(C)c(NC(=O)Nc2ccccc2C(=O)c2ccc(Cl)cc2)c1 [Example 18] | 95.8% | 99.99% | 99.9% | 99.99% | 0 degrees |  | 
12 | CCCCCCCC[N+](C)(C)Cc1cn(Cc2ccc(C(=O)c3ccccc3)cc2)nn1 [Example 19] | 92.8% | 99.99% | 99.6% | 99.99% | 0 degrees |  | 
13 | CC1(C)C(=O)N(COC(=O)Nc2ccc(C(=O)c3ccccc3)cc2)C(C)(C)N1Cl [Example 26] | 97.9% | 99.99% | 99.9% |  | 45 degrees |  | 
14 | CC1(C)C(=O)N(Cc2ccc(C(=O)c3ccccc3)cc2)C(=O)N1Cl [Example 27] | 94.9% | 99.99% | 99.8% |  | 50 degrees |  | 
15 | CC1(C)C(=O)N(CC(O)CNCc2ccc(C(=O)c3ccccc3)cc2)C(=O)N1Cl (centres unmarked) [Example 28] | 95.1% | 99.99% | 99.9% | 99.99% | 40 degrees |  | 
